By EC50 is commonly meant the midpoint of the concentration-response curve.

The record followed here is patent US20230312605A1, “PYRROLO[2,1-F][1,2,4]TRIAZINES AND PREPARATION AND USES THEREOF” (BioSplice Therapeutics, Inc., priority 2021, published 2023).

Structures are written as SMILES.

The target of the experiment is recombinant DYRK1A kinase (Homo sapiens (Human), UniProt Q13627). Kind of experiment: DYRK1A kinase assay (Ser/Thr 18 peptide Z-lyte FRET assay). Conditions: recombinant DYRK1A 0.25 µg/mL, ATP 15 µM, Ser/Thr peptide 18 4 µM, one hour at room temperature; table head prints EC50, method says IC50. It is filed as biochemical. How it is done:
Representative compounds were screened using the assay procedure for DYRK1A kinase activity as described below.
Each compound was dissolved in DMSO as a 10 mM stock and used to prepare compound source plates. Serial dilution (1:3, 11-point dose-response curves from 10 µM to 0.00016 µM) and compound transfer was performed using the ECHO 550 (Labcyte, Sunnyvale, CA) into 1536-well black-walled round bottom plates (Corning).
The DYRK1A kinase assay was run using the Ser/Thr 18 peptide Z-lyte assay kit according to manufacturer’s instructions (Life Technologies- a Division of Thermo-Fisher). This is a non-radioactive assay using fluorescence resonance energy transfer (FRET) between coumarin and fluorescein to detect kinase activity which is represented as a ratio of coumarin emission/fluorescein emission.
Briefly, recombinant DYRK1A kinase, ATP and Ser/Thr peptide 18 were prepared in 1X Kinase buffer to final concentrations of 0.25 µg/mL, 15 µM, and 4 µM respectively. The mixture was allowed to incubate with the representative compounds for one hour at room temperature. All reactions were performed in duplicate. Unphosphorylated (“0% Control”) and phosphorylated (“100% control”) forms of Ser/Thr 18 served as control reactions. Additionally, an 11-point dose-response curve of Staurosporine (1uM top) was run to serve as a positive compound control.
After incubation, Development Reagent A was diluted in Development Buffer then added to the reaction and allowed to further incubate for one hour at room temperature. The plate was read at Ex 400 Em 455 to detect the coumarin signal and Ex 400 Em 520 to measure the signal (EnVision Multilabel Plate Reader, PerkinElmer).
The Emission ratio (Em) was calculated as a ratio of the coumarin (C) emission signal (at 445 nm)/Fluorescein (F) emission signal (at 520 nm). The percent phosphorylation was then calculated using the following formula: [1 — ((Em ratio X F100%)—C100%)/ ((C0%—C100%) + (Em ratio X (F100% - F0%)))]. Dose-response curves were generated, and inhibitory concentration (IC50) values were calculated using non-linear regression curve fit in the Dotmatics’ Studies Software (Bishops Stortford, UK).
Turning to `CCO[C@H]1C[C@@H](Nc2ncc3c(-c4cnc5nccn5c4)ccn3n2)C1` [Compound 242, N-(cis-3-Ethoxycyclobutyl)-5-(imidazo[1,2-a]pyrimidin-6-yl)pyrrolo[2,1-f] [1,2,4]triazin-2-amine], the 50% effective concentration (EC50) was determined as 5 nM.
Take `COCCO[C@H]1C[C@@H](Nc2ncc3c(-c4cnc5nccn5c4)ccn3n2)C1` [Compound 244, 5-(Imidazo[1,2-a]pyrimidin-6-yl)-N-(cis-3-(2-methoxyethoxy)cyclobutyl) pyrrolo[2,1-f] [1,2,4]triazin-2-amine]: the EC50 amounted to 5 nM.
The figure for `C[C@]1(O)CC[C@@H](Nc2ncc3c(-c4cnc5nccn5c4)ccn3n2)CC1` [Compound 258, (1s,4s)-4-((5-(Imidazo [1,2-a]pyrimidin-6-yl)pyrrolo[2,1-f] [1,2,4]triazin-2-yl)amino)-1-methylcyclohexan-1-ol] is 10 nM; for `CO[C@H]1CC[C@H](Nc2ncc3c(-c4cnc5nccn5c4)ccn3n2)CC1` [Compound 260, 5-(Imidazo[1,2-a]pyrimidin-6-yl)-N-(trans-4-methoxycyclohexyl)pyrrolo [2,1-f] [1,2,4]triazin-2-amine] it is 9 nM.
The figure for `CCO[C@H]1CC[C@@H](Nc2ncc3c(-c4cnc5nccn5c4)ccn3n2)CC1` [Compound 263, N-(cis-4-Ethoxycyclohexyl)-5-(imidazo[1,2-a]pyrimidin-6-yl)pyrrolo[2,1-f][1,2,4]triazin-2-amine] is 6 nM; for `COCCO[C@H]1CC[C@@H](Nc2ncc3c(-c4cnc5nccn5c4)ccn3n2)CC1` [Compound 265, 5-(Imidazo[1,2-a]pyrimidin-6-yl)-N-(cis-4-(2-methoxyethoxy)cyclohexyl) pyrrolo[2,1-f] [1,2,4]triazin-2-amine] it is 6 nM; for `CN1CCC(Nc2ncc3c(-c4cnc5nccn5c4)ccn3n2)CC1` [Compound 279, 5-(Imidazo[1,2-a]pyrimidin-6-yl)-N-(1-methylpiperidin-4-yl)pyrrolo[2,1-f][1,2,4]triazin-2-amine] it is 49 nM.
As for `c1cn2cc(-c3ccn4nc(NC5CCOCC5)ncc34)cnc2n1` [Compound 280, 5-(imidazo[1,2-a]pyrimidin-6-yl)-N-(tetrahydro-2H-pyran-4-yl)pyrrolo[2,1-f][1,2,4]triazin-2-amine], the figure is 15 nM; as for `CN1CC2(CC(Nc3ncc4c(-c5cnc6nccn6c5)ccn4n3)C2)C1` [Compound 283, 5-(Imidazo[1,2-a]pyrimidin-6-yl)-N-(2-methyl-2-azaspiro[3.3]heptan-6-yl)pyrrolo[2,1-f][1,2,4]triazin-2-amine], 20 nM.
For `CC(C)(F)CNc1ncc2c(-c3cnc4ncc(Cl)n4c3)ccn2n1` [Compound 287, 5-(3-Chloroimidazo[1,2-a]pyrimidin-6-yl)-N-(2-fluoro-2-methylpropyl) pyrrolo[2,1-f] [1,2,4]triazin-2-amine], the EC50 was 170 nM.
Consider `Cc1cnc2ncc(-c3ccn4nc(NCC(C)(C)F)ncc34)cn12` [Compound 358, N-(2-Fluoro-2-methylpropyl)-5-(3-methylimidazo[1,2-a]pyrimidin-6-yl) pyrrolo[2,1-f] [1,2,4]triazin-2-amine], for which the EC50 turned out to be 25 nM.
Turning to `Cc1cnc2ncc(-c3ccn4nc(NC5CCC(F)(F)CC5)ncc34)cn12` [Compound 398, N-(4,4-Difluorocyclohexyl)-5-(3-methylimidazo[1,2-a]pyrimidin-6-yl) pyrrolo[2,1-f] [1,2,4]triazin-2-amine], the concentration for a half-maximal effect (EC50) was 12 nM.
As to `CCc1cnc2ncc(-c3ccn4nc(NCC(C)(C)F)ncc34)cn12` [Compound 429, 5-(3-Ethylimidazo[1,2-a]pyrimidin-6-yl)-N-(2-fluoro-2-methylpropyl) pyrrolo[2,1-f] [1,2,4]triazin-2-amine], the EC50 came to 654 nM.
On to `Cc1nc2c(F)cc(-c3ccn4nc(NCC(C)(C)F)ncc34)cc2n1C(C)C` [Compound 500], for which the concentration for a half-maximal effect (EC50) was determined as 44 nM.
The figure for `Cc1nc2ncc(-c3ccn4nc(NCC(C)(C)F)ncc34)cc2n1CC(F)F` [Compound 642, 5-(1-(2,2-difluoroethyl)-2-methyl-1H-imidazo[4,5-b]pyridin-6-yl)-N-(2-fluoro-2-methylpropyl)pyrrolo[2,1-f][1,2,4]triazin-2-amine] is 4 nM; for `Cc1nc2ncc(-c3ccn4nc(NC5CCC(F)(F)CC5)ncc34)cc2n1CC(F)F` [Compound 682, N-(4,4-Difluorocyclohexyl)-5-(1-(2,2-difluoroethyl)-2-methyl-1H-imidazo[4,5-b]pyridin-6-yl)pyrrolo[2,1-f] [1,2,4]triazin-2-amine] it is 4 nM.
The figure for `Cc1nc2ncc(-c3ccn4nc(N[C@H]5CC[C@@H](O)CC5)ncc34)cc2n1CC(F)F` [Compound 683, cis-4-((5-(1-(2,2-Difluoroethyl)-2-methyl-1H-imidazo[4,5-b]pyridin-6-yl)pyrrolo[2,1-f][1,2,4]triazin-2-yl)amino)cyclohexan-1-ol] is 6 nM; for `Cc1nc2ncc(-c3ccn4nc(N[C@H]5CC[C@@](C)(O)CC5)ncc34)cc2n1CC(F)F` [Compound 684, cis-4-((5-(1-(2,2-Difluoroethyl)-2-methyl-1H-imidazo[4,5-b]pyridin-6-yl)pyrrolo[2,1-f][1,2,4]triazin-2-yl)amino)-1-methylcyclohexan-1-ol] it is 4 nM.
The figure for `CO[C@H]1CC[C@@H](Nc2ncc3c(-c4cnc5nc(C)n(CC(F)F)c5c4)ccn3n2)CC1` [Compound 685, 5-(1-(2,2-Difluoroethyl)-2-methyl-1H-imidazo[4,5-b]pyridin-6-yl)-N-(cis-4-methoxycyclohexyl)pyrrolo[2,1-f] [1,2,4]triazin-2-amine] is 3 nM.
`CO[C@H]1CC[C@H](Nc2ncc3c(-c4cnc5nc(C)n(CC(F)F)c5c4)ccn3n2)CC1` [Compound 686, 5-(1-(2,2-Difluoroethyl)-2-methyl-1H-imidazo[4,5-b]pyridin-6-yl)-N-(trans-4-methoxycyclohexyl)pyrrolo[2,1-f][1,2,4]triazin-2-amine]: the EC50 stood at 5 nM.
On to `Cc1nc2ncc(-c3ccn4nc(N[C@H]5CC[C@@H](OC(F)F)CC5)ncc34)cc2n1CC(F)F` [Compound 687], for which the EC50 turned out to be 2 nM.
The figure for `COCCO[C@H]1CC[C@@H](Nc2ncc3c(-c4cnc5nc(C)n(CC(F)F)c5c4)ccn3n2)CC1` [Compound 691, 5-(1-(2,2-Difluoroethyl)-2-methyl-1H-imidazo[4,5-b]pyridin-6-yl)-N-(cis-4-(2-methoxyethoxy)cyclohexyl)pyrrolo[2,1-f][1,2,4]triazin-2-amine] is 3 nM; for `COCCO[C@H]1CC[C@H](Nc2ncc3c(-c4cnc5nc(C)n(CC(F)F)c5c4)ccn3n2)CC1` [Compound 692, 5-(1-(2,2-Difluoroethyl)-2-methyl-1H-imidazo[4,5-b]pyridin-6-yl)-N-(trans-4-(2-methoxyethoxy)cyclohexyl)pyrrolo[2,1-f][1,2,4]triazin-2-amine] it is 28 nM.
As for `Cc1nc2ncc(-c3ccn4nc(NC5CCOCC5)ncc34)cc2n1CC(F)F` [Compound 706, 5-(1-(2,2-Difluoroethyl)-2-methyl-1H-imidazo[4,5-b]pyridin-6-yl)-N-(tetrahydro-2H-pyran-4-yl)pyrrolo[2,1-f][1,2,4]triazin-2-amine], the figure is 5 nM; as for `Cc1nc2ncc(-c3ccn4nc(NCC(C)(C)F)ncc34)cc2n1C1CC(F)(F)C1` [Compound 713, 5-(1-(3,3-Difluorocyclobutyl)-2-methyl-1H-imidazo[4,5-b]pyridin-6-yl)-N-(2-fluoro-2-methylpropyl)pyrrolo[2,1-f][1,2,4]triazin-2-amine], 11 nM; as for `Cc1nc2ccc(-c3ccn4nc(NCC(C)(C)F)ncc34)nc2n1C` [Compound 855, 5-(2,3-Dimethyl-3H-imidazo[4,5-b]pyridin-5-yl)-N-(2-fluoro-2-methylpropyl)pyrrolo[2,1-f][1,2,4]triazin-2-amine], 43 nM.
In the case of `CCn1c(C)nc2ccc(-c3ccn4nc(NCC(C)(C)F)ncc34)nc21` [Compound 926, 5-(3-Ethyl-2-methyl-3H-imidazo[4,5-b]pyridin-5-yl)-N-(2-fluoro-2-methylpropyl)pyrrolo[2,1-f][1,2,4]triazin-2-amine], the EC50 was 27 nM.
As for `Cc1nc2ccc(-c3ccn4nc(NC5CC(F)(F)C5)ncc34)nc2n1CC(F)F` [Compound 1088, N-(3,3-Difluorocyclobutyl)-5-(3-(2,2-difluoroethyl)-2-methyl-3H-imidazo [4,5-b]pyridin-5-yl)pyrrolo[2,1-f][1,2,4]triazin-2-amine], the figure is 4 nM.
